Patent publication US8399380B2, “Herbicidal composition” (Sumitomo Chemical Company, Limited, priority 2007, dated 2013)

Tests used:
Format in all cases: in vivo
Design in all cases: key: 0: there is no or little difference in the degree of growth between treated plants and untreated plants at the time of observation; 1: evaluated at 6 levels using the indices of 0 to 5; 2: evaluated at 6 levels using the indices of 0 to 5; 3: evaluated at 6 levels using the indices of 0 to 5; The herbicidal values of “4” and “5” show excellent herbicidal activity; 5: the test plants die completely or their growth is completely inhibited
Alopecurus myosuroides = assay: Test Example 1, soil application, pot test in greenhouse; conditions: 34 days after application
Source text: (§1) The herbicidal values of “4” and “5” show excellent herbicidal activity. Each of plastic pots (measuring 22 cm in diameter and 19 cm in height) was filled with upland field soil and sown with Lolium multiflorum and Alopecurus myosuroides. Each of the predetermined amounts of a flumioxazin formulation product (trade name: Valor_SX, manufactured by Valent USA Corporation), a sulfosulfuron formulation product (trade name: Monitor, manufactured by Monsanto Company) and a mixture of the flumioxazin formulation product and the sulfosulfuron formulation product was diluted with water, and then the dilution was uniformly sprayed over the soil surface by a small-sized sprayer. After the treatment, the weeds were grown in a greenhouse, and the herbicidal activity against the weeds was evaluated at 34 days after application.

Lolium multiflorum = assay: as above; conditions: 34 days after application
Source text: as §1

Solidago altissima = assay: Test Example 2, foliar application, pot test in greenhouse; conditions: 29 days after treatment
Source text: The herbicidal values of “4” and “5” show excellent herbicidal activity. Each of plastic pots (measuring 12 cm in diameter and 8 cm in height) was filled with upland field soil and Solidago altissima collected from outdoors was transplanted to the plastic pot and grown in a greenhouse for 31 days. Each of the predetermined amounts of a flumioxazin formulation product (trade name: Valor_SX, manufactured by Valent USA Corporation), a sulfosulfuron formulation product (trade name: Monitor, manufactured by Monsanto Company) and a mixture of the flumioxazin formulation product and the sulfosulfuron formulation product was diluted with water, and then the dilution was uniformly sprayed over each plant body from above by a small-sized sprayer. After the treatment, the weeds were grown in a greenhouse for 29 days, and then the herbicidal activity against the weeds was evaluated.

Row | Structure (SMILES) | Herbicidal activity Alopecurus myosuroides (Alopecurus myosuroides; active ingredient 10 g/ha) | Herbicidal activity Alopecurus myosuroides (Alopecurus myosuroides; active ingredient 20 g/ha) | Herbicidal activity Lolium multiflorum (Lolium multiflorum; active ingredient 10 g/ha) | Herbicidal activity Lolium multiflorum (Lolium multiflorum; active ingredient 20 g/ha) | Herbicidal activity Solidago altissima (Solidago altissima; active ingredient 60 g/ha) | Herbicidal activity Solidago altissima (Solidago altissima; active ingredient 120 g/ha) | Herbicidal activity Alopecurus myosuroides (Alopecurus myosuroides; active ingredient 40 g/ha) | Herbicidal activity Lolium multiflorum (Lolium multiflorum; active ingredient 40 g/ha) | Herbicidal activity Solidago altissima (Solidago altissima; active ingredient 40 g/ha)
1 | C#CCN1C(=O)COc2cc(F)c(N3C(=O)C4=C(CCCC4)C3=O)cc21 [Flumioxazin, N-(7-fluoro-3,4-dihydro-3-oxo-4-prop-2-ynyl-2H-1,4-benzeoxazin-6-yl)cyclohex-1-ene-1,2-dicarboxamide] | 1 | 4 | 0 | 1 | 0 | 1 |  |  | 
2 | CCS(=O)(=O)c1nc2ccccn2c1S(=O)(=O)NC(=O)Nc1nc(OC)cc(OC)n1 [Sulfosulfuron, 1-(4,6-dimethoxypyrimidin-2-yl)-3-(2-ethylsulfonylimidazo[1,2-a]pyridin-3-ylsulfonyl)urea] |  | 0 |  | 0 |  |  | 2 | 0 | 2
